From patent US6028195A, “Piperazine derivatives and process for the preparation thereof” (Samjin Pharmaceutical Co., Ltd., priority 1996, dated 2000)
Values after ≈ are worked out from the molar mass of the structure shown. Read-outs that look alike come from different tables or passages of the source.

Tests used:
XF 498 (human CNS) = test: SRB assay, in vitro antitumor effect against XF 498; format: cell-based; settings: Homo sapiens, XF498; XF-498, 48 hours; read-out: ED50 (the source's name)
Experimental: (§1) In vitro antitumor effect against human tumor cell lines.
(§2) b. 5×10^3 ~2×10^4 cells were added into each well of 96-well plate and cultured in 5% CO2 incubator, at 37° C., for 24 hours.
(§3) c. Each sample drug was dissolved in a little DMSO and diluted with the used medium to a prescribed concentration for experiments, wherein the final concentration of DMSO was controlled below 0.5%.
(§4) d. Medium of each well cultured for 24 hours as above b. was removed by aspiration. Each 200 μl of drug samples prepared in c. was added into each well and the wells were cultured for 48 hours. Tz(time zero) plates were collected at the point of time drugs were added.
(§5) e. According to the SRB assay method, cell fixing with TCA, staining with 0.4% SRB solution, washing with 1% acetic acid and elution of dye with 10 mM Tris solution were carried out on Tz plates and culture-ended plates, and then, OD values were measured at 520 nm.
(§6) a. Time zero(Tz) value was determined with measuring the SRB protein value at the point of time drugs were added.
(§7) b. Control value(C) was determined with the OD value of an well untreated with drug.
(§8) c. Drug-treated test value(T) was determined with the OD value of drug-treated well.
(§9) d. Effects of drugs were estimated with growth stimulation, net growth inhibition, net killing etc. calculated from Tz, C and T.
(§10) e. If T≥Tz, cellular response function was calculated by 100×(T-Tz)/(C-Tz), and if T<Tz, by 100×(T-Tz)/Tz.

SKMEL-2 (human melanoma) = test: SRB assay, in vitro antitumor effect against SKMEL-2; format: cell-based; settings: Homo sapiens; SK-MEL-2, 48 hours; read-out: ED50 (the source's name)
Experimental: as §1, §2, §3, §4, §5, §6, §7, §8, §9, §10

[1] = Acute toxicity test (LD50), Litchfield-Wilcoxon method; settings: mouse, in vivo, ip, male ICR mice, 14 days
Experimental: Acute toxicity test (LD50): Litchfield-Wilcoxon method.
6 weeks old ICR mice(male 30±2.0 g) were fed freely with solid feed and water at room temperature, 23±1° C. and at humidity 60±5%. Sample drugs were injected into the abdominal cavities of mice, while each group comprises 6 mice. Observed during 14 days, external appearances and life or dead were recorded, and then, visible pathogenies were observed from dead animals by dissection. LD50 value was calculated by Litchfiled-wilcoxon method.

SKOV-3 (human ovarian) = test: SRB assay, in vitro antitumor effect against SKOV-3; format: cell-based; settings: Homo sapiens; SK-OV-3, 48 hours; read-out: ED50 (the source's name)
Experimental: as §1, §2, §3, §4, §5, §6, §7, §8, §9, §10

HCT-15 (human colon) = test: SRB assay, in vitro antitumor effect against HCT-15; format: cell-based; settings: Homo sapiens; HCT 15, 48 hours; read-out: ED50 (the source's name)
Experimental: as §1, §2, §3, §4, §5, §6, §7, §8, §9, §10

[2] = system: A549 (human non-small lung cell); test: SRB assay, in vitro antitumor effect against A549; format: cell-based; settings: Homo sapiens; A549, 48 hours; read-out: ED50 (the source's name)
Experimental: as §1, §2, §3, §4, §5, §6, §7, §8, §9, §10

[3] = system: mouse leukemia P388 cells; test: In vivo antitumor effects against mouse leukemia P388 cells in BDF1 mice; settings: P388, ip, abdominal cavity
Experimental: In vivo antitumor effects against mouse leukemia P388 cells.
1) Leukemia P388 cells being transfer-cultured successively in DBA/2 mouse, were grafted into each mouse of a group comprising 8 mice of 6 week old BDF1 mouse with the dose of 1×10^6 cells/0.1 ml. […]
3) With observation everyday, survival times of tested mice were measured. Antitumor activities was determined in such a manner that the increasing ratio(T/C%) of average survival days of drug-treated groups compared with the control group was calculated using the mean survival times of each tested groups.

[4] = on days 1, 4, 8, read-out: T/C(%)
[5] = nine everyday, read-out: T/C(%)
[6] = on days 1, 5, 9, read-out: T/C(%)

| SMILES | IC50 (XF 498 (human CNS)) [µg/mL] | IC50 (SKMEL-2 (human melanoma)) [µg/mL] | LD50 at 336 h [1] [mg/kg] | IC50 (SKOV-3 (human ovarian)) [µg/mL] | IC50 (HCT-15 (human colon)) [µg/mL] | IC50 [2] [µg/mL] | also measured |
| --- | --- | --- | --- | --- | --- | --- | --- |
| COc1cc(C)c(C)cc1NC(=O)N1CCN(c2cc(C)cc(C)c2)CC1 [Example 172, 1-[(4,5-Dimethyl-2-methoxyphenyl)aminocarbonyl]-4-(3,5-dimethylphenyl)piperazine] | 0.0086 (≈ 0.0234 µM) | 0.0233 (≈ 0.0634 µM) | 723 | 0.0097 (≈ 0.0264 µM) | 0.018 (≈ 0.049 µM) | 0.0047 (≈ 0.0128 µM) | response vs control in vivo at 50 mg/kg [3, 4]: 118%; response vs control in vivo at 100 mg/kg [3, 4]: 127%; response vs control in vivo at 200 mg/kg [3, 4]: 191% |
| CCc1cc(N(C)C(=O)N2CCN(c3cc(C)cc(C)c3)CC2)c(OC)nc1C [Example 144, 1-[N-(5-Ethyl-2-methoxy-6-methylpyridin-3-yl)-N-methylaminocarbonyl]-4-(3,5-dimethylphenyl)piperazine] |  |  |  |  |  |  | response vs control in vivo at 50 mg/kg [3, 5]: 110%; response vs control in vivo at 100 mg/kg [3, 5]: 110%; response vs control in vivo at 200 mg/kg [3, 5]: 125% |
| COc1cc(OC)cc(N2CCN(C(=O)Nc3cc(C(C)O)c(C)nc3OC)CC2)c1 (centres unmarked) [Example 56, 1-{[5-(1-Hydroxyethyl)-2-methoxy-6-methylpyridin-3-yl]aminocarbonyl}-4-(3,5-dimethoxyphenyl)piperazine] | 0.013 (≈ 0.0302 µM) | 0.01 (≈ 0.0232 µM) | 410 | 0.0027 (≈ 0.00627 µM) | 0.045 (≈ 0.105 µM) | 0.017 (≈ 0.0395 µM) | response vs control in vivo at 10 mg/kg ([3]; 10 mg/kg, nine everyday, read-out: T/C(%)): 140%; response vs control in vivo at 25 mg/kg [3, 5]: 145%; response vs control in vivo at 50 mg/kg [3, 5]: 165%; response vs control in vivo at 50 mg/kg [3, 6]: 118%; response vs control in vivo at 100 mg/kg [3, 6]: 141%; response vs control in vivo at 200 mg/kg [3, 6]: 227% |
| COc1nc(C)c(C)cc1NC(=S)N1CCN(c2cc(C)cc(C)c2)CC1 [Example 22, 1-[(5,6-Dimethyl-2-methoxypyridin-3-yl)aminothiocarbonyl]-4-(3,5-dimethylphenyl)piperazine] | 0.0053 (≈ 0.0138 µM) | 0.027 (≈ 0.0702 µM) | > 2000 | 0.006 (≈ 0.0156 µM) | 0.01 (≈ 0.026 µM) | 0.0009 (≈ 0.00234 µM) | response vs control in vivo at 25 mg/kg [3, 5]: 110%; response vs control in vivo at 50 mg/kg [3, 5]: 140%; response vs control in vivo at 100 mg/kg [3, 5]: 150% |
| C=C(C)c1ccccc1N1CCN(C(=O)Nc2cc(C)c(C)cc2OC)CC1 [Example 187, 1-[(4,5-Dimethyl-2-methoxyphenyl)aminocarbonyl]-4-(2-isopropenylphenyl)piperazine] |  |  | 418 |  |  |  |  |
| COc1cc(C)c(C)cc1NC(=O)N1CCN(c2ccccc2)CC1 [Example 170, 1-[(4,5-Dimethyl-2-methoxyphenyl)aminocarbonyl]-4-phenylpiperzine] |  |  | 573 |  |  |  |  |
| COc1nc(C)c(C(C)O)cc1NC(=O)N1CCN(c2cc(C)cc(C)c2)CC1 (centres unmarked) [Example 57, 1-{[5-(1-Hydroxyethyl)-2-methoxy-6-methylpyridin-3-yl]aminocarbonyl}-4-(3,5-dimethylphenyl)piperazine] | 0.22 (≈ 0.552 µM) | 0.18 (≈ 0.452 µM) | 455 | 0.15 (≈ 0.376 µM) | 0.25 (≈ 0.627 µM) | 0.27 (≈ 0.678 µM) |  |
| CCc1nc(OC)c(NC(=O)N2CCN(c3cc(C)cc(C)c3)CC2)cc1C [Example 13, 1-[(6-Ethyl-2-methoxy-5-methylpyridin-3-yl)aminocarbonyl]-4-(3,5-dimethylphenyl)piperazine] |  |  | 285 |  |  |  |  |
| CCCc1cc(NC(=O)N2CCN(c3cc(OC)cc(OC)c3)CC2)c(OC)nc1C [Example 8, 1-[(2-Methoxy-6-methyl-5-propylpyridin-3-yl)aminocarbonyl]-4-(3,5-dimethoxyphenyl)piperazine] |  |  | 707 |  |  |  | response vs control in vivo at 100 mg/kg [3, 6]: 104%; response vs control in vivo at 200 mg/kg [3, 6]: 141% |
| COc1cc(OC)cc(N2CCN(C(=O)Nc3cc(C)c(C)cc3OC)CC2)c1 [Example 171, 1-[(4,5-Dimethyl-2-methoxyphenyl)aminocarbonyl]-4-(3,5-dimethoxyphenyl)piperazine] | 0.000572 (≈ 0.00143 µM) | 0.00323 (≈ 0.00809 µM) |  | 0.00372 (≈ 0.00931 µM) | 0.00181 (≈ 0.00453 µM) | 0.000645 (≈ 0.00161 µM) | response vs control in vivo at 25 mg/kg [3, 4]: 100%; response vs control in vivo at 50 mg/kg [3, 4]: 100%; response vs control in vivo at 100 mg/kg [3, 4]: 140% |
| COc1ccc(C)c(N2CCN(C(=O)Nc3cc(C)c(C)cc3OC)CC2)c1 [Example 184, 1-[(4,5-Dimethyl-2-methoxyphenyl)aminocarbonyl]-4-(5-methoxy-2-methylphenyl)piperazine] | 0.12 (≈ 0.313 µM) | 0.17 (≈ 0.443 µM) | 309 | 0.34 (≈ 0.887 µM) | 0.2 (≈ 0.522 µM) | 0.28 (≈ 0.73 µM) |  |
| COc1cc(OC)cc(N2CCN(C(=O)N(C)c3cc4ccccc4nc3OC)CC2)c1 [Example 98, 1-[N-(2-Methoxyquinolin-3-yl)-N-methylaminocarbonyl]-4-(3,5-dimethoxyphenyl)piperazine] |  |  |  |  |  |  | response vs control in vivo at 25 mg/kg [3, 5]: 110%; response vs control in vivo at 50 mg/kg [3, 5]: 110%; response vs control in vivo at 100 mg/kg [3, 5]: 150% |
| COc1cc(C)c(C)cc1NC(=O)N1CCN(c2cccc(OC(C)=O)c2)CC1 [Example 182, 1-[(4,5-Dimethyl-2-methoxyphenyl)aminocarbonyl]-4-(3-acetoxyphenyl)piperazine] |  |  | 348 |  |  |  |  |
| COc1nc(C)c(C)cc1N(C)C(=O)N1CCN(c2cc(C)cc(C)c2)CC1 [Example 135, 1-[N-(5,6-Dimethyl-2-methoxypyridin-3-yl)-N-methylaminocarbonyl]-4-(3,5-dimethylphenyl)piperazine] | 0.06 (≈ 0.157 µM) | 0.102 (≈ 0.267 µM) |  | 0.092 (≈ 0.241 µM) | 0.066 (≈ 0.173 µM) | 0.056 (≈ 0.146 µM) | response vs control in vivo at 25 mg/kg [3, 5]: 100%; response vs control in vivo at 50 mg/kg [3, 5]: 110%; response vs control in vivo at 100 mg/kg [3, 5]: 150% |
| CCc1nc(OC)c(NC(=O)N2CCN(c3cc(OC)cc(OC)c3)CC2)cc1C [Example 12, 1-[(6-Ethyl-2-methoxy-5-methylpyridin-3-yl)aminocarbonyl]-4-(3,5-dimethoxyphenyl)piperazine] |  |  | 165 |  |  |  |  |
| CCCc1nc(OC)c(NC(=S)N2CCN(c3cccc(O)c3)CC2)cc1C [Example 28, 1-[(2-Methoxy-5-methyl-6-propylpyndin-3-yl)aminothiocarbonyl]-4-(3-hydroxyphenyl)piperazine] | 0.41 (≈ 1.02 µM) | 0.001 (≈ 0.0025 µM) | > 2000 | 0.07 (≈ 0.175 µM) | 0.05 (≈ 0.125 µM) | 0.06 (≈ 0.15 µM) |  |
| COc1cc(C)c(C)cc1NC(=O)N1CCN(c2cc(-c3ccccc3)ccc2OC)CC1 [Example 186, 1-[(4,5-Dimethyl-2-methoxyphenyl)aminocarbonyl]-4-(2-methoxy-5-phenylphenyl)piperazine] |  |  | > 2000 |  |  |  |  |
| COc1cc(OC)cc(N2CCN(C(=O)Nc3cc(C(C)=O)c(C)nc3OC)CC2)c1 [Example 46, 1-[(5-Acetyl-2-methoxy-6-methylpyridin-3-yl)amninocarbonyl]-4-(3,5-dimethoxyphenyl)piperazine] | 0.14 (≈ 0.327 µM) | 0.08 (≈ 0.187 µM) |  | 0.12 (≈ 0.28 µM) | 0.16 (≈ 0.373 µM) | 0.21 (≈ 0.49 µM) |  |
| CCN(C(=O)N1CCN(c2cc(OC)cc(OC)c2)CC1)c1cc(C)c(C)nc1OC [Example 133, 1-[N-Ethyl-N-(5,6-dimethyl-2-methoxypyridin-3-yl)aminocarbonyl]-4-(3,5-dimethoxyphenyl)piperazine] | 0.61 (≈ 1.42 µM) | 0.53 (≈ 1.24 µM) |  | 0.94 (≈ 2.19 µM) | 0.57 (≈ 1.33 µM) | 0.57 (≈ 1.33 µM) |  |
